Biological target: T1, GLP-1R (Homo sapiens, UniProt P43220)
T1 construct: host or cells: CRE-bla CHO-K1
Experiment: EC20 GLP-1(9-36) PAM cAMP assay: dose response of compound in the presence of fixed concentration of GLP-1(9-36)
Type: cell-based
Conditions: GLP-1R CRE-bla CHO-K1 cells, compound dose response in presence of fixed concentration of GLP-1(9-36)
How it was run: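 Positive allosteric modulation read as cAMP rise: 12-point compound titration combined with a fixed EC20 level of GLP-1(9-36) on GLP-1R CHO-K1 cells, IBMX present, 30 min at 37 °C. Luminescent HitHunter signal converted to cAMP; nonlinear fit gave EC50 and Emax.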

T1 sequence (P43220 24-463): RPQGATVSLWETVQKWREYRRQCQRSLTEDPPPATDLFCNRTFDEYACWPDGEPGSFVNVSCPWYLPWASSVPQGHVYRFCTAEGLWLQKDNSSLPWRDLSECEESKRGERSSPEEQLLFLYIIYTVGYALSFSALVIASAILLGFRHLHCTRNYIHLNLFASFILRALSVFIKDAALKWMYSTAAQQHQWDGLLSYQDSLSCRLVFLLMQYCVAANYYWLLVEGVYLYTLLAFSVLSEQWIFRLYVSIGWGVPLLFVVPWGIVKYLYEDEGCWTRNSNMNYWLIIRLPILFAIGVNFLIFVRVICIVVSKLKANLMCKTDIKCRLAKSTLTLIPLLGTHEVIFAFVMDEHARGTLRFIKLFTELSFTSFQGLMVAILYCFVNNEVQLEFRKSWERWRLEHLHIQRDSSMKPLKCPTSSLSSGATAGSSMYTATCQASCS
T1 sequence (P01275 100-127 partner limits assumed): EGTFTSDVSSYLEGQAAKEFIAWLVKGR

Compound	EC50
CC(C)Oc1ccc(-c2cnc(-c3ccc(C[C@H](NC(=O)c4ccc(C(C)(C)C)cc4)C(=O)O)cc3)nc2)cc1 [Compound 200]	2.5 to 5 µM
CCCCCCCOc1ccc(-c2nnc(-c3ccc(C[C@H](NC(=O)c4ccc(C(C)(C)C)cc4)C(=O)O)cc3)o2)cc1 [Compound 76]	0.8 to 2.5 µM
CC(C)(C)c1ccc(C(=O)N[C@@H](Cc2ccc(-c3ncc(-c4ccc(C(F)(F)F)cc4)cn3)cc2)C(=O)O)cc1 [Compound 209]	0.8 to 2.5 µM
CCCCCCCOc1ccc(-c2cnc(-c3ccc(C[C@H](NC(=O)c4ccc(C(=O)N(C)C)cc4)C(=O)O)cc3)nc2)cc1 [Compound 128]	0.8 to 2.5 µM
CC(C)c1ccc(-c2cnc(-c3ccc(C[C@H](NC(=O)c4ccc(C(C)(C)C)cc4)C(=O)O)cc3)nc2)cc1 [Compound 195]	0.8 to 2.5 µM
CCCCCCCOc1ccc(-c2cnc(-c3ccc(C[C@H](NC(=O)c4ccc(C(C)C)s4)C(=O)O)cc3)nc2)cc1 [Compound 152]	0.8 to 2.5 µM
CCCCCCCOc1ccc(-c2nc(-c3ccc(C[C@H](NC(=O)c4ccc(C(C)(C)C)cc4)C(=O)O)cc3)no2)cc1 [Compound 2, (S)-2-(4-(tert-butyl)benzamido)-3-(4-(5-(4-(heptyloxy)phenyl)-1,2,4-oxadiazol-3-yl)phenyl)propanoic acid]	2.5 to 5 µM
C[C@H](NC(=O)[C@H](Cc1ccc(-c2ncc(-c3ccc(C(C)(C)C)cc3)cn2)cc1)NC(=O)c1ccc(C(C)(C)C)s1)C(=O)O [Compound 364]	0.8 to 2.5 µM
CCCCCCCOc1ccc(-c2cnc(-c3ccc(C[C@H](NC(=O)c4ccc(C(C)(C)C)s4)C(=O)O)cc3)cn2)cc1 [Compound 281]	< 0.8 µM
CCCCCCCOc1ccc(-c2cnc(-c3ccc(C[C@H](NC(=O)c4ccc(CC(C)C)s4)C(=O)O)cc3)nc2)cc1 [Compound 153]	0.8 to 2.5 µM
CCCCCCCOc1ccc(-c2cnc(-c3ccc(C[C@H](NC(=O)c4ccc(CCC)cc4)C(=O)O)cc3)nc2)cc1 [Compound 101]	0.8 to 2.5 µM
CC(C)(C)c1ccc(-c2cnc(-c3ccc(C[C@H](NC(=O)c4ccc(C(C)(C)C)s4)C(=O)N[C@@H](CC(=O)O)C(=O)O)cc3)nc2)cc1 [Compound 361]	0.8 to 2.5 µM
CC(C)(C)c1ccc(C(=O)N[C@@H](Cc2ccc(-c3noc(-c4ccc(C(F)(F)F)cc4)n3)cc2)C(=O)O)cc1 [Compound 11]	0.8 to 2.5 µM
CCCCCCCOc1ccc(-c2cnc(-c3ccc(C[C@H](NC(=O)c4ccc(C(C)(C)C)cc4)C(=O)O)cc3)nc2N(C)C)cc1 [Compound 293]	2.5 to 5 µM
CCCCCCCOc1ccc(-c2ccc(-c3ccc(C[C@H](NC(=O)c4ccc(C(C)(C)C)s4)C(=O)O)cc3)nn2)cc1 [Compound 279]	5 to 10 µM
CC(C)(C)c1ccc(-c2cnc(-c3ccc(C[C@H](NC(=O)c4nnc(C(C)(C)C)s4)C(=O)O)cc3)nc2)cc1 [Compound 169]	5 to 10 µM
CCCCCCCOc1ccc(-c2cnc(-c3ccc(C[C@H](NC(=O)c4coc(C(C)(C)C)n4)C(=O)O)cc3)nc2)cc1 [Compound 296]	0.8 to 2.5 µM
Cc1ccc(-c2ccc(-c3cnc(-c4ccc(C[C@H](NC(=O)c5ccc(C(C)(C)C)cc5)C(=O)O)cc4)nc3)cc2)cc1 [Compound 229]	0.8 to 2.5 µM
CCCCCCCOc1ccc(-c2cnc(-c3ccc(C[C@H](NC(=O)c4ncc(C(C)(C)C)s4)C(=O)O)cc3)nc2)cc1 [Compound 142]	< 0.8 µM
CC(C)(C)c1ccc(-c2ccc(-c3ccc(C[C@H](NC(=O)c4ccc(C(C)(C)C)s4)C(=O)O)cc3)nn2)cc1 [Compound 280]	2.5 to 5 µM
CCCCCCCOc1ccc(-c2cnc(-c3ccc(C[C@H](NC(=O)c4ccc(OCC(C)C)cc4)C(=O)O)cc3)nc2)cc1 [Compound 121]	0.8 to 2.5 µM
CC(C)(C)c1ccc(-c2cnc(-c3ccc(C[C@H](NC(=O)c4ccc(C(C)(C)C)s4)C(=O)N[C@H](Cc4cnc[nH]4)C(=O)O)cc3)nc2)cc1 [Compound 356]	0.8 to 2.5 µM
CCCCCCCOc1ccc(-c2cnc(-c3ccc(C[C@H](NC(=O)c4ccc(-c5ccccc5)cc4)C(=O)O)cc3)nc2)cc1 [Compound 91]	0.8 to 2.5 µM
CCCCCCCOc1ccc(-c2cnc(-c3ccc(C[C@H](NC(=O)c4ccc(C#N)cc4)C(=O)O)cc3)nc2)cc1 [Compound 98]	0.8 to 2.5 µM
CC(C)(C)c1ccc(C(=O)N[C@@H](Cc2ccc(-c3noc(-c4ccc(O)cc4)n3)cc2)C(=O)O)cc1 [Compound 43]	2.5 to 5 µM
CCCCCCCOc1ccc(-c2cnc(-c3ccc(C[C@@H](NC(=O)c4ccc(C(C)(C)C)s4)C(=O)N[C@@H](CO)C(=O)O)cc3)nc2)cc1 [Compound 378]	< 0.8 µM

The remaining lines, values ahead:

EC50	Compound
0.8 to 2.5 µM	CCCCCCCOc1ccc(-c2cnc(-c3ccc(C[C@H](NC(=O)c4ccc(OC(F)(F)F)cc4)C(=O)O)cc3)nc2)cc1 [Compound 120]
0.8 to 2.5 µM	CC(C)(C)c1ccc(C(=O)N[C@@H](Cc2ccc(-c3noc(-c4ccc(-c5cccc(F)c5)cc4)n3)cc2)C(=O)O)cc1 [Compound 20]
0.8 to 2.5 µM	CCCCCCCOc1ccc(-c2cnc(-c3ccc(C[C@H](NC(=O)c4ccc(C(C)(C)C)o4)C(=O)O)cc3)nc2)cc1 [Compound 133]
0.8 to 2.5 µM	CCCCCCCOc1ccc(-c2cnc(-c3ccc(C[C@H](NC(=O)c4ccc(C(C)(C)C)cc4)C(=O)N(C)CC(=O)O)cc3)nc2)cc1 [Compound 304]
0.8 to 2.5 µM	CC(C)(C)c1ccc(C(=O)N[C@@H](Cc2ccc(-c3ncc(-c4ccc(-c5ccccc5)cc4)cn3)cc2)C(=O)O)cc1 [Compound 205]
< 0.8 µM	CCCCCCCOc1ccc(-c2cnc(-c3ccc(C[C@H](NC(=O)c4ccc(C(C)(C)C)s4)C(=O)N[C@H](CO)C(=O)O)cc3)nc2)cc1 [Compound 323]
0.8 to 2.5 µM	CCCCCCCOc1ccc(-c2csc(-c3ccc(C[C@H](NC(=O)c4ccc(C(C)(C)C)cc4)C(=O)O)cc3)n2)cc1 [Compound 79]
0.8 to 2.5 µM	CC(C)(C)c1ccc(-c2cnc(-c3ccc(C[C@H](NC(=O)c4ccc(C(C)(C)C)s4)C(=O)N4CCC[C@@H]4C(=O)O)cc3)nc2)cc1 [Compound 358]
0.8 to 2.5 µM	CCCCCCCOc1ccc(-c2cnc(-c3ccc(C[C@H](NC(=O)c4ccc(C(C)(C)C)s4)C(=O)NC(CN(C)C)C(=O)O)cc3)nc2)cc1 (stereo partly drawn) [Compound 337]
0.8 to 2.5 µM	CCCCCCCOc1ccc(-c2nc(-c3ccc(C[C@H](NC(=O)c4ccc(C(C)(C)C)cc4)C(=O)NCC(=O)O)cc3)no2)cc1 [Compound 67, (S)-2-(2-(4-(tert-butyl)benzamido)-3-(4-(5-(4-(heptyloxy)phenyl)-1,2,4-oxadiazol-3-yl)phenyl)propanamido)acetic acid]
0.8 to 2.5 µM	CCCCCOc1ccc(-c2cnc(-c3ccc(C[C@H](NC(=O)c4ccc(C(C)(C)C)cc4)C(=O)O)cc3)nc2)cc1 [Compound 224]
0.8 to 2.5 µM	CC(C)Cc1ccc(C(=O)N[C@@H](Cc2ccc(-c3ncc(-c4ccc(C(C)(C)C)cc4)cn3)cc2)C(=O)O)cc1 [Compound 163]
0.8 to 2.5 µM	CCCCCCCOc1ccc(-c2nc(-c3ccc(C[C@H](NC(=O)c4ccc(C(C)(C)C)cc4)C(=O)O)cc3)cs2)cc1 [Compound 80]
2.5 to 5 µM	CC(C)Oc1ccc(-c2nc(-c3ccc(C[C@H](NC(=O)c4ccc(C(C)(C)C)cc4)C(=O)O)cc3)no2)cc1 [Compound 33]
0.8 to 2.5 µM	CCCCCCCOc1ccc(-c2cnc(-c3ccc(C[C@H](NC(=O)c4ccc(OCC)cc4)C(=O)O)cc3)nc2)cc1 [Compound 108]
2.5 to 5 µM	CC(C)(C)c1ccc(C(=O)N[C@@H](Cc2ccc(-c3noc(-c4ccc(N5CCCCC5)cc4)n3)cc2)C(=O)O)cc1 [Compound 5]

EC50	Compound
0.8 to 2.5 µM	CCCCCCCCCCCCOc1ccc(-c2cnc(-c3ccc(C[C@H](NC(=O)c4ccc(C(C)(C)C)s4)C(=O)O)cc3)nc2)cc1 [Compound 250]
0.8 to 2.5 µM	CCOc1ccc(C(=O)N[C@@H](Cc2ccc(-c3ncc(-c4ccc(C(C)(C)C)cc4)cn3)cc2)C(=O)O)cc1 [Compound 171]
0.8 to 2.5 µM	CCCCCCCOc1ccc(-c2cnc(-c3ccc(C[C@H](NC(=O)c4ccc(C(C)(C)C)cc4)C(=O)O)cc3)cc2C(F)(F)F)cc1 [Compound 295]
< 0.8 µM	CCCCCCCOc1ccc(-c2cnc(-c3ccc(C[C@H](NC(=O)c4ccc(C(C)C)cc4)C(=O)NCC(=O)O)cc3)nc2)cc1 [Compound 317]
0.8 to 2.5 µM	CC(C)(C)c1ccc(-c2cnc(-c3ccc(C[C@H](NC(=O)c4ccc(C(C)(C)C)s4)C(=O)N[C@H](CCC(N)=O)C(=O)O)cc3)nc2)cc1 [Compound 353]
0.8 to 2.5 µM	CCCCCCCOc1ccc(-c2cnc(-c3ccc(C[C@H](NC(=O)c4cnc(C(C)C)s4)C(=O)O)cc3)nc2)cc1 [Compound 148]
0.8 to 2.5 µM	CCCCCCCOc1ccc(-c2cnc(-c3ccc(C[C@H](NC(=O)c4cc(C)c(CC)s4)C(=O)O)cc3)nc2)cc1 [Compound 145]
0.8 to 2.5 µM	CCCCCCCOc1ccc(-c2cnc(-c3ccc(C[C@H](NC(=O)c4ccc(Cl)cc4)C(=O)O)cc3)nc2)cc1 [Compound 87]
< 0.8 µM	CCCCCCOc1ccc(-c2cnc(-c3ccc(C[C@H](NC(=O)c4ccc(C(C)(C)C)cc4)C(=O)NCC(=O)O)cc3)nc2)cc1 [Compound 318]
5 to 10 µM	CC(C)(C)c1ccc(C(=O)N[C@@H](Cc2ccc(-c3noc(-c4ccc(-c5ccc(Cl)cc5)cc4)n3)cc2)C(=O)O)cc1 [Compound 16]
2.5 to 5 µM	CC(C)(C)c1ccc(C(=O)N[C@@H](Cc2ccc(-c3noc(-c4ccc5ccccc5c4)n3)cc2)C(=O)O)cc1 [Compound 60]
0.8 to 2.5 µM	CCCCCCCOc1ccc(-c2cnc(-c3ccc(C[C@H](NC(=O)c4ccc(OC(C)(C)C)cc4)C(=O)O)cc3)nc2)cc1 [Compound 125]
0.8 to 2.5 µM	CCCCCCCOc1ccc(-c2cnc(-c3ccc(C[C@H](NC(=O)c4ccc(C(C)C)cc4)C(=O)N[C@H](CO)C(=O)O)cc3)nc2)cc1 [Compound 315]
< 0.8 µM	CCCCCCCOc1ccc(-c2cnc(-c3ccc(C[C@H](NC(=O)c4ccc(C(C)=O)s4)C(=O)O)cc3)nc2)cc1 [Compound 154]
2.5 to 5 µM	CCCCCCCOc1ccc(-c2cnc(-c3ccc(C[C@H](NC(=O)c4ccc(C(F)(F)F)s4)C(=O)O)cc3)nc2)cc1 [Compound 140]

Reference: patent publication US8778923B2, “GLP-1 receptor modulators” (Receptos, Inc., priority 2011, dated 2014)
